Test systems include TK-10 renal; NCI-H522 lung; HCT-15 colon; SK-MEL-28 melanoma; HOP-92 NSCLC; OVCAR-5 ovarian; OVCAR-8 ovarian; M14 melanoma; SF-295 CNS; SW-620 colon; IGROV1 ovarian; OVCAR-3 ovarian.
What all share (assay): inhibition of tumour cell growth, NCI panel, 48 h

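Growth conditions: 96-well plates. Treatment: test compound, 48 hours, 5 concentrations. Analysis: linear interpolation between bracketing concentrations; unreached endpoints set to highest concentration. TGI: concentration producing complete growth inhibition.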

For the compound `COc1cc(/C=C\c2ccc(SC)cc2)cc(OC)c1OC`, the TGI is over 100 µM in the assay on TK-10 renal; 0.0369 µM with NCI-H522 lung; 29.4 µM in the assay on HCT-15 colon; over 100 µM with SK-MEL-28 melanoma; over 46.1 µM with HOP-92 NSCLC; over 18.5 µM in the assay with OVCAR-5 ovarian. The TGI in the assay with OVCAR-8 ovarian was over 41 µM; with M14 melanoma, over 100 µM; in the assay on SF-295 CNS, under 0.0204 µM; in the assay with SW-620 colon, over 100 µM; in the assay on IGROV1 ovarian it was over 17.1 µM; in the assay on OVCAR-3 ovarian it was 57.8 µM.
On to `COc1cc(O)c(C(=O)/C=C/c2ccc(O)cc2)cc1Oc1ccc(C(=O)/C=C/c2ccc(O)cc2)c(O)c1`, for which the TGI in the assay with TK-10 renal came out at 11.3 µM; in the assay with NCI-H522 lung, 6.22 µM; in the assay on HCT-15 colon it was 3.68 µM; in the assay with SK-MEL-28 melanoma it was 4.11 µM; with HOP-92 NSCLC, 24.9 µM; with OVCAR-5 ovarian, 5.6 µM. Besides, the TGI with OVCAR-8 ovarian stood at 7.97 µM; in the assay with M14 melanoma it was 12.7 µM; in the assay with SF-295 CNS it was 10.4 µM; in the assay on SW-620 colon it was 11 µM; in the assay on IGROV1 ovarian, 3.9 µM; in the assay on OVCAR-3 ovarian it was 8.14 µM.
Take `Cc1cc(SCC(=O)c2ccc(Br)cc2)cc(C)[o+]1`: the TGI in the assay on TK-10 renal was 87.9 µM; in the assay on NCI-H522 lung, 65.2 µM; with HCT-15 colon, over 100 µM; in the assay on SK-MEL-28 melanoma, 42.9 µM; with HOP-92 NSCLC it was 74.8 µM; in the assay on OVCAR-5 ovarian, 69.9 µM. The TGI is over 100 µM in the assay on OVCAR-8 ovarian; 79.1 µM in the assay with M14 melanoma; 65.6 µM in the assay with SF-295 CNS; over 100 µM in the assay with SW-620 colon; over 100 µM in the assay with IGROV1 ovarian; 49.8 µM in the assay on OVCAR-3 ovarian.
For the compound `COc1ccccc1NC(=S)N/N=C(/c1ccccc1)c1ccccn1`, the TGI in the assay on TK-10 renal worked out at 18.3 µM; in the assay on NCI-H522 lung, 17.3 µM; in the assay on HCT-15 colon, 20.3 µM; with SK-MEL-28 melanoma it was 23.9 µM; with HOP-92 NSCLC it was 15.6 µM; in the assay on OVCAR-5 ovarian, 13.2 µM. For the same compound, the TGI worked out at 10.5 µM in the assay with OVCAR-8 ovarian; 9.52 µM with M14 melanoma; 7.17 µM in the assay with SF-295 CNS; 18.4 µM in the assay on SW-620 colon; 17.6 µM in the assay on IGROV1 ovarian; 16.5 µM in the assay on OVCAR-3 ovarian.
For the compound `COC(=O)CCCc1ccc2c(c1)CCC2`, the TGI with TK-10 renal, with NCI-H522 lung, in the assay on HCT-15 colon, with SK-MEL-28 melanoma, in the assay with HOP-92 NSCLC and with OVCAR-5 ovarian was over 100 µM each time. In addition, the TGI in the assay with OVCAR-8 ovarian, in the assay with M14 melanoma, in the assay on SF-295 CNS, in the assay on SW-620 colon, in the assay on IGROV1 ovarian and in the assay with OVCAR-3 ovarian was over 100 µM in each case.
For `COc1ccc2c(c1)CCC(CN1CCN(CCOC(c3ccc(F)cc3)c3ccc(F)cc3)CC1)=C2`, the TGI amounted to 44.4 µM in the assay on TK-10 renal; 27.8 µM in the assay with NCI-H522 lung; 57.8 µM in the assay on HCT-15 colon; 77.1 µM in the assay with SK-MEL-28 melanoma; 42 µM in the assay with HOP-92 NSCLC; 97.4 µM in the assay on OVCAR-5 ovarian. The TGI in the assay with OVCAR-8 ovarian is 63.2 µM; in the assay with M14 melanoma it was 27.4 µM; with SF-295 CNS, 87.2 µM; with SW-620 colon, over 100 µM; in the assay with IGROV1 ovarian, over 100 µM; in the assay on OVCAR-3 ovarian, 50.6 µM.
Take `CC(C)(C)[C@@H]1NC(=O)CN1C(=O)OCc1ccccc1`: the TGI in the assay on TK-10 renal, in the assay on NCI-H522 lung, with HCT-15 colon, in the assay on SK-MEL-28 melanoma, with HOP-92 NSCLC and with OVCAR-5 ovarian was over 100 µM in each case. Besides, the TGI with OVCAR-8 ovarian, in the assay with M14 melanoma, in the assay with SF-295 CNS, in the assay on SW-620 colon and in the assay on IGROV1 ovarian was over 100 µM each time.
Consider `O=C(/C=C1\N=C(c2ccccc2)N(c2ccc3c(c2)Sc2cc(N4C(=O)/C(=C/C(=O)/C=C/c5ccccc5)N=C4c4ccccc4)ccc2N3)C1=O)/C=C/c1ccccc1`, for which the TGI in the assay with TK-10 renal was over 100 µM; in the assay with NCI-H522 lung it was 46.8 µM; with HCT-15 colon, over 100 µM; in the assay with SK-MEL-28 melanoma, over 100 µM; with HOP-92 NSCLC, over 100 µM; in the assay on OVCAR-5 ovarian it was 48.8 µM. For the same compound, the TGI was over 100 µM in the assay with OVCAR-8 ovarian; over 100 µM in the assay on M14 melanoma; 57 µM in the assay on SF-295 CNS; over 100 µM with SW-620 colon; over 100 µM in the assay with IGROV1 ovarian; 43.6 µM in the assay on OVCAR-3 ovarian.
Turning to `CCCCc1ccc(N2C(=O)c3cc(C)cnc3S2(=O)=O)cc1`, the TGI in the assay on NCI-H522 lung, in the assay with HCT-15 colon, in the assay on SK-MEL-28 melanoma, in the assay with HOP-92 NSCLC, in the assay on OVCAR-5 ovarian and in the assay on OVCAR-8 ovarian was over 100 µM each time. Further, the TGI in the assay on M14 melanoma, in the assay on SF-295 CNS, with SW-620 colon, in the assay on IGROV1 ovarian and with OVCAR-3 ovarian was over 100 µM throughout.
Turning to `COc1ccc(N(C(=O)OC(C)(C)C)[C@@H]2C(C)=C[C@H]([S@@](=O)c3ccc(C)cc3)[C@@H]3C(=O)N(C)C(=O)[C@@H]32)cc1`, the TGI in the assay with TK-10 renal is 43.4 µM; in the assay on NCI-H522 lung it was 18.5 µM; in the assay with HCT-15 colon, over 100 µM; in the assay on SK-MEL-28 melanoma, 41.3 µM; in the assay on HOP-92 NSCLC, 61.5 µM; with OVCAR-5 ovarian it was 43.1 µM. Further, the TGI is 46.7 µM in the assay on OVCAR-8 ovarian; over 100 µM in the assay on M14 melanoma; 35.9 µM in the assay with SF-295 CNS; 45.5 µM in the assay with SW-620 colon; 23.1 µM with IGROV1 ovarian; 80.8 µM with OVCAR-3 ovarian.
`CC1(C)OC1CC/C(=C/CBr)CBr` (stereo not drawn): the TGI with TK-10 renal turned out to be 32.5 µM; in the assay with NCI-H522 lung it was 23.5 µM; with SK-MEL-28 melanoma, 31.5 µM; in the assay on HOP-92 NSCLC it was 29.4 µM; with OVCAR-5 ovarian it was 31.5 µM; in the assay with M14 melanoma, 36.5 µM. In addition, the TGI was 27.6 µM with SF-295 CNS, 28.7 µM with SW-620 colon, 27.3 µM in the assay with IGROV1 ovarian and 33.7 µM in the assay on OVCAR-3 ovarian.

(Values after PubChem BioAssay (NCI).)
